Measured values published in paper PMC12724231, “APC24-7, a covalent combination of boronic acid and chelator moieties, restores β-lactam efficiency against metallo-β-lactamase-producers” (mSphere, 2025).
Read-outs that look alike come from different tables or passages of the source. One block for each compound: values may come before it.

Key:
Assay in all cases: microbe, parasite or virus in culture
[1] = system: T1, Escherichia coli #22; set-up: species or system clinical isolates of E. coli and K. pneumoniae; Broth microdilution MIC (CLSI), cation-adjusted Mueller-Hinton broth, visual reading, antibiotic alone against clinical isolates; details: Escherichia coli, antibiotic alone
T1 construct: #22
Protocol: (§1) MICs for clinical isolates were determined in a broth microdilution assay according to Clinical and Laboratory Standards Institute (CLSI) ([75]), using cation-adjusted Mueller-Hinton broth (Thermo Fisher Scientific, Lenexa, USA). The direct colony suspension method was utilized by preparing an inoculum of an OD600 0.17, except for E. coli #36 in which 0.10 was used, which equated to a concentration of 10^8 colony-forming units (CFU) per mL. Inoculum controls were included for all assays ([76]). MICs for all clinical isolates were determined alone and in combination with inhibitors for all BLs tested, either using manually prepared plates of aztreonam, cefepime, ceftazidime, and amoxicillin or premade plates of meropenem (Sensititre), and all antibiotics tested at a twofold increasing concentration of 0.03–64 mg/L (Table 1; Table S3). Compound APC24-7 was tested at a fixed concentration of 14, 28, and 57 µM (8, 16, or 32 mg/L) with meropenem, and for all other BLs tested at the highest inhibitor concentration to be able to compare the efficiency of the BI/BLI combinations. Taniborbactam was tested at a fixed equimolar concentration (6.5, 13, and 26 mg/L) and only evaluated with meropenem. A minimum of 2–3 replicates was performed for all combinations. Assay plates were incubated at 37°C without shaking for 16–20 h, and the results were visually interpreted in accordance with EUCAST guidelines and clinical breakpoint table version 15.0 (www.eucast.org).

[2] = system: T2, Escherichia coli #29; set-up: species or system clinical isolates of E. coli and K. pneumoniae; Broth microdilution MIC (CLSI), cation-adjusted Mueller-Hinton broth, visual reading, antibiotic alone against clinical isolates; details: Escherichia coli, antibiotic alone
T2 construct: #29
Protocol: as §1

[3] = system: T3, Escherichia coli #36; set-up: species or system clinical isolates of E. coli and K. pneumoniae; Broth microdilution MIC (CLSI), cation-adjusted Mueller-Hinton broth, visual reading, antibiotic alone against clinical isolates; details: Escherichia coli, antibiotic alone
T3 construct: #36
Protocol: as §1

[4] = system: T4, Escherichia coli BAA-2469; set-up: species or system clinical isolates of E. coli and K. pneumoniae; Broth microdilution MIC (CLSI), cation-adjusted Mueller-Hinton broth, visual reading, antibiotic alone against clinical isolates; details: Escherichia coli, BAA2469, antibiotic alone
T4 construct: ATCC BAA-2469
Protocol: as §1

[5] = system: T5, Klebsiella pneumoniae BAA-2146; set-up: species or system clinical isolates of E. coli and K. pneumoniae; Broth microdilution MIC (CLSI), cation-adjusted Mueller-Hinton broth, visual reading, antibiotic alone against clinical isolates; details: Klebsiella pneumoniae, BAA2146, antibiotic alone
T5 construct: ATCC BAA-2146
Protocol: as §1

[6] = system: T6, Klebsiella pneumoniae BAA1705; set-up: species or system clinical isolates of E. coli and K. pneumoniae; Broth microdilution MIC (CLSI), cation-adjusted Mueller-Hinton broth, visual reading, antibiotic alone against clinical isolates; details: Klebsiella pneumoniae, BAA1705, antibiotic alone
T6 construct: ATCC BAA-1705
Protocol: as §1

[7] = system: T7, Klebsiella pneumoniae K46-62; set-up: species or system clinical isolates of E. coli and K. pneumoniae; Broth microdilution MIC (CLSI), cation-adjusted Mueller-Hinton broth, visual reading, antibiotic alone against clinical isolates; details: Klebsiella pneumoniae, K4662, antibiotic alone
T7 construct: K46-62
Protocol: as §1

[8] = system: T8, Klebsiella pneumoniae K66-45; set-up: species or system clinical isolates of E. coli and K. pneumoniae; Broth microdilution MIC (CLSI), cation-adjusted Mueller-Hinton broth, visual reading, antibiotic alone against clinical isolates; details: Klebsiella pneumoniae, K6645, antibiotic alone
T8 construct: K66-45
Protocol: as §1

[9] = system: T9, Klebsiella pneumoniae KresCPE0097; set-up: species or system clinical isolates of E. coli and K. pneumoniae; Broth microdilution MIC (CLSI), cation-adjusted Mueller-Hinton broth, visual reading, antibiotic alone against clinical isolates; details: Klebsiella pneumoniae, KRESCPE0097, antibiotic alone
T9 construct: KresCPE0097
Protocol: as §1

[10] = system: T10, Klebsiella pneumoniae KresCPE0353; set-up: species or system clinical isolates of E. coli and K. pneumoniae; Broth microdilution MIC (CLSI), cation-adjusted Mueller-Hinton broth, visual reading, antibiotic alone against clinical isolates; details: Klebsiella pneumoniae, KRESCPE0353, antibiotic alone
T10 construct: KresCPE0353
Protocol: as §1

[11] = system: T11, Klebsiella pneumoniae KresCPE0367; set-up: species or system clinical isolates of E. coli and K. pneumoniae; Broth microdilution MIC (CLSI), cation-adjusted Mueller-Hinton broth, visual reading, antibiotic alone against clinical isolates; details: Klebsiella pneumoniae, KRESCPE0367, antibiotic alone
T11 construct: KresCPE0367
Protocol: as §1

[12] = system: T12, Klebsiella pneumoniae KresCPE0372; set-up: species or system clinical isolates of E. coli and K. pneumoniae; Broth microdilution MIC (CLSI), cation-adjusted Mueller-Hinton broth, visual reading, antibiotic alone against clinical isolates; details: Klebsiella pneumoniae, KRESCPE0372, antibiotic alone
T12 construct: KresCPE0372
Protocol: as §1

[13] = system: T13, Escherichia coli MP21-05; set-up: species or system E. coli E. cloni 10G; Microdilution MIC of inhibitor alone in LB, OD600 read-out, E. coli 10G without or with empty vector; details: MP2105, inhibitor alone
T13 construct: MP21-05
Protocol: (§2) Susceptibility testing of isogenic E. coli E. cloni 10G (Table 2) was determined by both the microdilution assay. […] Overnight cultures were prepared in LB supplemented with 25 mg/L chloramphenicol at 37°C under shaking at 700 rpm. The overnight cultures were diluted in PBS to 10^6 CFU/ mL, followed by inoculation in LB to ~10^5 CFU in 384-well plates (VWR, Radnor, PA, USA). Plates were prepared with twofold increasing concentrations of meropenem and cefepime ([…], respectively) to a total inoculated volume of 100 µL Plates were incubated at 37°C without shaking for 19–21 h. OD600 was determined in a SpectraMax Plus plate reader (Molecular Devices).

[14] = system: T14, Escherichia coli MP32-64; set-up: species or system E. coli E. cloni 10G; Microdilution MIC of inhibitor alone in LB, OD600 read-out, E. coli 10G without or with empty vector; details: MP3264, inhibitor alone
T14 construct: MP32-64
Protocol: as §2

[15] = read-out: MIC AZT (mg/L) / AZT alone
[16] = read-out: MIC APC24-7 (μM) / APC148*
[17] = read-out: MIC FEP (mg/L) / FEP alone
[18] = read-out: MIC APC24-7 (μM) / Taniborbactam**
[19] = read-out: MIC AMX (mg/L) / AMX alone

Structure (SMILES): C[C@H]1[C@H](NC(=O)/C(=N\OC(C)(C)C(=O)O)c2csc(N)n2)C(=O)N1S(=O)(=O)O [aztreonam]
MIC [1, 15]: > 64 mg/L | MIC [2, 15]: > 64 mg/L | MIC [3, 15]: > 64 mg/L | MIC [4, 15]: 16 mg/L | MIC [5, 15]: > 64 mg/L | MIC [6, 15]: > 64 mg/L | MIC [7, 15]: > 64 mg/L | MIC [8, 15]: > 64 mg/L | MIC [9, 15]: 64 mg/L | MIC [10, 15]: > 64 mg/L | MIC [11, 15]: > 64 mg/L | MIC [12, 15]: 32 mg/L

MIC [13, 16]: > 906 µM | MIC [14, 16]: > 906 µM
Structure (SMILES): CN(C[C@H](O)[C@@H](O)[C@H](O)[C@H](O)CO)C(=O)c1ccc(CN(Cc2ccccn2)Cc2ccccn2)nc1 [APC148]

Structure (SMILES): CO/N=C(\C(=O)N[C@@H]1C(=O)N2C(C(=O)[O-])=C(C[N+]3(C)CCCC3)CS[C@H]12)c1csc(N)n1 [cefepime]
MIC [1, 17]: > 64 mg/L | MIC [2, 17]: > 64 mg/L | MIC [3, 17]: > 64 mg/L | MIC [4, 17]: > 64 mg/L | MIC [5, 17]: > 64 mg/L | MIC [6, 17]: > 64 mg/L | MIC [7, 17]: > 64 mg/L | MIC [8, 17]: > 64 mg/L | MIC [9, 17]: 16 mg/L | MIC [10, 17]: > 64 mg/L | MIC [11, 17]: > 64 mg/L | MIC [12, 17]: > 64 mg/L

MIC [13, 18]: > 906 µM | MIC [14, 18]: > 906 µM
Structure (SMILES): NCCN[C@H]1CC[C@H](CC(=O)N[C@H]2Cc3cccc(C(=O)O)c3OB2O)CC1 [taniborbactam]

Structure (SMILES): CC(C)(O/N=C(\C(=O)N[C@@H]1C(=O)N2C(C(=O)[O-])=C(C[n+]3ccccc3)CS[C@H]12)c1csc(N)n1)C(=O)O [ceftazidime]
MIC ([1]; read-out: MIC): > 64 mg/L | MIC ([2]; read-out: MIC): > 64 mg/L | MIC ([3]; read-out: MIC): > 64 mg/L | MIC ([4]; read-out: MIC): > 64 mg/L | MIC ([5]; read-out: MIC): > 64 mg/L | MIC ([6]; read-out: MIC): > 64 mg/L | MIC ([7]; read-out: MIC): > 64 mg/L | MIC ([8]; read-out: MIC): > 64 mg/L | MIC ([9]; read-out: MIC): 8 mg/L | MIC ([10]; read-out: MIC): > 64 mg/L | MIC ([11]; read-out: MIC): > 64 mg/L | MIC ([12]; read-out: MIC): > 64 mg/L

Structure (SMILES): CC1(C)S[C@@H]2[C@H](NC(=O)[C@H](N)c3ccc(O)cc3)C(=O)N2[C@H]1C(=O)O [amoxicillin]
MIC [1, 19]: > 64 mg/L | MIC [2, 19]: > 64 mg/L | MIC [3, 19]: > 64 mg/L | MIC [4, 19]: > 64 mg/L | MIC [5, 19]: > 64 mg/L | MIC [6, 19]: > 64 mg/L | MIC [7, 19]: > 64 mg/L | MIC [8, 19]: > 64 mg/L | MIC [9, 19]: > 64 mg/L | MIC [10, 19]: > 64 mg/L | MIC [11, 19]: > 64 mg/L | MIC [12, 19]: > 64 mg/L
